Data as given in patent US8703812B2, “Protein synthesis required for long-term memory is induced by PKC activation on days preceding associative learning” (Blanchette Rockefeller Neurosciences Institute, priority 2005, dated 2014).
“Also recorded” adds a separate entry of the source.

Tests used:
[1] = cited from earlier work
sAPP secretion [2] = conditions: human fibroblasts; cited from earlier work
sAPP secretion [3] = experiment: sAPP secretion / alpha-secretase APP processing; assay type: cell-based; conditions: 0.1 nM bryostatin-1
[4] = in vivo; cited from earlier work
calexcitin = experiment: Calexcitin immunostaining in B-photoreceptors; assay type: in vivo, Hermissenda
Description: Following experimental treatments and testing, animals were rapidly decapitated, the central nervous systems (CNS) removed and then fixed in 4% para-formaldehyde in 20 mM Tris-buffered (pH 8) natural seawater (NSW; 0.2 μm micropore-filtered). The CNSs were then embedded in polyester wax (20), sectioned (6 μm) and immunostained using a biotinylated secondary antibody coupled to avidin-bound microperoxidase (ABC method, Vector), Aminoethylcarbazole (AEC) was used as the chromogen. The primary polyclonal antibody (designated 25U2) was raised in rabbits from the full length calexcitin protein extracted from squid optic lobes. Gray-scale intensity measures were done from digital photomicrographs on circumscribed cytoplasmic areas of the B-photoreceptors minus the same background area (non-staining neuropile).

PKC = conditions: cited from earlier work
[5] = tested on: Rat hippocampal H19-7/IGF-IR cells; experiment: Protein synthesis by [35S]Methionine incorporation; assay type: cell-based; conditions: single 30-minute exposure to 0.28 nM bryostatin
Description: FIG. 17 depicts the effects of bryostatin on protein synthesis. Rat IGF-IR cells were incubated for 30 minutes with 0.28 nM bryostatin for incubation times ranging from 1 to 79 hours. [^35S]Methionine (9.1 μCi) was then added to the medium followed by analysis of radiolabel.
Rat hippocampal H19-7/IGF-IR cells (ATCC) were plated onto poly-L-lysine coated plates and grown at 35° in DMEM/10% FCS for several days until approx. 50% coverage was obtained. The cells were then induced to differentiate into a neuronal phenotype by replacing the medium with 5 ml N2 medium containing 10 ng/ml basic fibroblast growth factor and grown in T-25 flasks at 39° C. (26). Various concentrations of bryostatin (0.01-1.0 nM) were then added in 10 μl aqueous solution. After a specified interval, the medium was removed and the cells were washed with PBS, removed by gentle scraping, and collected by centrifugation at 1000 rpm for 5 min.
In fact, we found here that a single 30-minute exposure to 0.28 nM bryostatin increased overall protein synthesis (FIG. 17), measured by incorporation of ^35-S Methionine in the last ½ hour before collecting the neurons, by 20% within 24 h, increasing to 60% by 79 hours after the bryostatin exposure.

Q: Which results are given for `CCC/C=C/C=C/C(=O)O[C@H]1/C(=C/C(=O)OC)C[C@H]2C[C@H]([C@@H](C)O)OC(=O)C[C@H](O)C[C@@H]3C[C@H](OC(C)=O)C(C)(C)[C@](O)(C[C@@H]4C/C(=C/C(=O)OC)C[C@H](/C=C/C(C)(C)[C@]1(O)O2)O4)O3` [bryostatin, bryostatin-1]?
A: tolerability ([1]; 20 μg/m^2 once per week for 3 weeks): well tolerated and were not associated with myalgia or other side effects; maximum-tolerated dose ([1]; 1 hour i.v. infusion once every 2 weeks for 6 weeks): 50 μg/m^2; maximum tolerated dose ([1]; once per week for 8 weeks): 25 μg/m^2; myalgia reported, of all treated patients ([1]; phase II clinical trials): 10 to 87%; alpha-secretase cleavage of APP to sAPP (sAPP secretion [2]): activate the alpha-secretase; sAPP secretion (sAPP secretion [3]): dramatic increase of sAPP secretion; rat spatial maze learning [4]: enhanced; CE immunostaining (calexcitin; 24 hours after 1 bryostatin exposure for four hours, no conditioning): not elevated; CE immunostaining (calexcitin; 24 hours after 2 bryostatin exposures on two successive days, no conditioning): greater residual CE immunostaining; levels of calexcitin in B-photoreceptors (calexcitin; bryostatin alone 4-hr over each of 1, 2, and 3 days, measured 24 hours after each): progressively increased the levels of calexcitin; CE immunostaining (calexcitin; bryostatin plus 6 TE): comparable to that observed after 9 TE; calexcitin levels increase (calexcitin; paired training (6PTE) with bryostatin 0.25): greater than 4.3 ×; rise in calexcitin (CE) immuno-intensity (calexcitin; random training (4RTE) with bryostatin 0.25): 2.0; CE immunostaining (calexcitin; three 4 hour bryostatin exposures, 2 TE on subsequent day, 24 hours later): approached the levels previously observed immediately following 9 TE; calexcitin level (calexcitin; two 4-hr bryostatin exposures (0.25 ng/ml) on successive days, then 2-paired TEs): significantly increased calexcitin to levels associated with 9-paired TEs; also recorded: raise calexcitin levels to the amount associated with consolidated long-term memory; concentrations that activate PKC (PKC): sub-nanomolar; increase of overall protein synthesis ([5]; by 79 hours): 60%; increase of overall protein synthesis ([5]; within 24 h): 20%
